Reference: patent US11959083B2, “Immunosuppression-reverting oligonucleotides inhibiting the expression of CD39” (Secarna Pharmaceuticals GmbH & Co. KG, priority 2016, dated 2024)
l = locked nucleic acid (LNA); d = 2'-deoxy (DNA)

Tested on: mCD39 mRNA
Test: mCD39 mRNA knockdown efficacy screen in A20 cells (single dose, gymnotic delivery, QuantiGene Singleplex)
Type: cell-based, mouse
Conditions: 10 μM, three days, normalized to HPRT1
Procedure: FIG. 14-1 and 14-2 show mCD39 mRNA knockdown efficacy of mCD39 antisense oligonucleotides in the murine cancer cell line A20 (mouse B cell lymphoma). A20 cells were treated with a single dose of 10 μM of the respective antisense oligonucleotide. As negative control, cells were treated with neg1, an antisense oligonucleotide having the sequence CGTTTAGGCTATGTACTT (SEQ ID NO:99). Residual mCD39 mRNA expression relative to untreated cells is depicted. Expression values were normalized to expression of the housekeeping gene HPRT1.
In order to analyze the efficacy of mCD39 antisense oligonucleotides with regard to the knockdown of mCD39 mRNA expression in a cancer cell line, A20 (mouse B cell lymphoma, ATCC) cells were treated with a single dose (concentration: 10 μM without addition of any transfection reagent; this process is called gymnotic delivery) of the respective antisense oligonucleotide as indicated in FIG. 14. As control, cells were treated with neg1, an antisense oligonucleotide having the sequence CGTTTAGGCTATGTACTT (SEQ ID NO:99). mCD39 and HPRT1 mRNA expression was analyzed after three days using the QuantiGene Singleplex assay (Affymetrix) and mCD39 expression values were normalized to HPRT1 expression values.

With “+A*+C*+A*T*T*T*C*T*T*A*C*T*C*+G*+T*+T (antisense ACATTTCTTACTCGTT; sugars from the 5' end l3 d10 l3, all phosphorothioate, methylation of C not given here) [A04022MR]” the “Relative mCD39 mRNA expression (compared to non-treated cells)” value was 0.20.

“+A*+G*+A*T*C*C*A*A*A*G*C*G*C*+C*+A*+A (antisense AGATCCAAAGCGCCAA; sugars from the 5' end l3 d10 l3, all phosphorothioate, methylation of C not given here) [A04013MR]” was tested, and the “Relative mCD39 mRNA expression (compared to non-treated cells)” value was 0.06.

With “+A*+G*+C*A*T*T*T*T*G*G*C*A*T*+C*+A*+C (antisense AGCATTTTGGCATCAC; sugars from the 5' end l3 d10 l3, all phosphorothioate, methylation of C not given here) [A04020MR]” the “Relative mCD39 mRNA expression (compared to non-treated cells)” value was 0.06.

With “+A*+G*+T*A*A*T*C*C*A*C*C*C*+A*+T*+A (antisense AGTAATCCACCCATA; sugars from the 5' end l3 d9 l3, all phosphorothioate, methylation of C not given here) [A04001MR]” the “Relative mCD39 mRNA expression (compared to non-treated cells)” value was 0.02.

“+A*+G*+T*T*A*T*A*G*C*C*T*T*G*+C*+A*+G (antisense AGTTATAGCCTTGCAG; sugars from the 5' end l3 d10 l3, all phosphorothioate, methylation of C not given here) [A04017MR]” was tested, and the “Relative mCD39 mRNA expression (compared to non-treated cells)” value was 0.07.

“+A*+T*+C*C*A*A*A*G*C*G*C*C*A*A*+A*+G*+G (antisense ATCCAAAGCGCCAAAGG; sugars from the 5' end l3 d11 l3, all phosphorothioate, methylation of C not given here) [A04026MR]” was tested, and the “Relative mCD39 mRNA expression (compared to non-treated cells)” value was 0.04.
